# Test results from patent publication US20240190890A1, “MK2 INHIBITORS AND USES THEREOF” (Bristol-Myers Squibb Company, priority 2022, published 2024).
# Target: p38a activated, mitogen-activated protein kinase-activated protein kinase 2 (MAPKAP-K2 or MK2) enzyme (Homo sapiens (Human), UniProt P49137)
# Assay: MK2 Omnia continuous-read kinase assay for compound potency
# Format: biochemical
# Settings: [MK-2]=0.4 nM, [ATP]=10 μM, [ST3-Sox]=10 μM; room temperature
# In short: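 p38a-activated MK2 (0.4 nM) with 10 μM ATP (apparent Km) and 10 μM S/T3-Sox peptide in Tris pH 7.5 buffer with MgCl2, EGTA and DTT. Fluorescence (ex360/em485) read continuously for 120 min at room temperature. IC50 from initial linear slopes; apparent kinact/KI from kobs of exponential progress-curve fits.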
# Chain of p38a activated, mitogen-activated protein kinase-activated protein kinase 2 (MAPKAP-K2 or MK2) enzyme (P49137 whole entry): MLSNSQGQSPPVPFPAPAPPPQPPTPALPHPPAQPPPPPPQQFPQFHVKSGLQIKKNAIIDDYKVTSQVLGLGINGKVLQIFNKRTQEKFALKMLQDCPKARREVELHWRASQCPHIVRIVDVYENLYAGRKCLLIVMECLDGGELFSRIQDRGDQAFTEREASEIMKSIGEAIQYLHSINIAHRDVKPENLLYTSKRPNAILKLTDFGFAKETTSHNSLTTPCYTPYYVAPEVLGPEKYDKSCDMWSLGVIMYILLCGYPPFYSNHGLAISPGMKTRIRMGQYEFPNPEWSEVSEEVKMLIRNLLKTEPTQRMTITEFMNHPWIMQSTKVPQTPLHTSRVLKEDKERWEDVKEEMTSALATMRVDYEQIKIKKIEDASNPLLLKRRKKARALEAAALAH
row,Compound,IC50 [nM]
1,"C=Cc1cc(-c2ccc3c(ccc4sc5c(c43)NC[C@@H](C)NC5=O)n2)c(CN2CCC(OC)CC2)cn1 [Example I-155, (R)-3-(5-((4-methoxypiperidin-1-yl)methyl)-2-vinylpyridin-4-yl)-10-methyl-9,10,11,12-tetrahydro-8H-[1,4]diazepino[5′,6′:4,5]thieno[3,2-f]quinolin-8-one]",95
2,"C=Cc1cc(-c2ccc3c(ccc4sc5c(c43)NC[C@@H](C)NC5=O)n2)c(COC)cn1 [Example I-253, (R)-3-(5-(methoxymethyl)-2-vinylpyridin-4-yl)-10-methyl-9,10,11,12-tetrahydro-8H-[1,4]diazepino[5′,6′:4,5]thieno[3,2-f]quinolin-8-one]",6
3,"C[C@@H]1CNc2c(sc3ccc4nc(-c5ccnc(Cl)n5)ccc4c23)C(=O)N1 [Example I-8, (R)-3-(2-chloropyrimidin-4-yl)-10-methyl-9,10,11,12-tetrahydro-8H-[1,4]diazepino[5′,6′:4,5]thieno[3,2-f]quinolin-8-one]",75
4,"C=Cc1nc2c(c(-c3ccc4c(ccc5sc6c(c54)NC[C@@H](C)NC6=O)n3)n1)CN(C)CC2 [Example I-191, (R)-10-methyl-3-(6-methyl-2-vinyl-5,6,7,8-tetrahydropyrido[4,3-d]pyrimidin-4-yl)-9,10,11,12-tetrahydro-8H-[1,4]diazepino[5′,6′:4,5]thieno[3,2-f]quinolin-8-one]",289
5,"C=Cc1cc(-c2ccc3c(ccc4sc5c(c43)NC[C@@H](C)NC5=O)n2)cc(N2CCC(F)(F)CC2)n1 [Example I-168, (R)-3-(2-(4,4-difluoropiperidin-1-yl)-6-vinylpyridin-4-yl)-10-methyl-9,10,11,12-tetrahydro-8H-[1,4]diazepino[5′,6′:4,5]thieno[3,2-f]quinolin-8-one]",260
6,"C[C@@H]1CNc2c(sc3ccc4nc(-c5cc(Cl)ncc5C#N)ccc4c23)C(=O)N1 [Example I-160, (R)-6-chloro-4-(10-methyl-8-oxo-9,10,11,12-tetrahydro-8H-[1,4]diazepino[5′,6′:4,5]thieno[3,2-f]quinolin-3-yl)nicotinonitrile]",3
7,"[2H]C([2H])([2H])C(O)c1cnc(C=C)cc1-c1ccc2c(ccc3sc4c(c32)NC[C@@H](C)NC4=O)n1 (stereo partly drawn) [Example I-260, (10R)-3-(5-(1-hydroxyethyl-2,2,2-d3)-2-vinylpyridin-4-yl)-10-methyl-9,10,11,12-tetrahydro-8H-[1,4]diazepino[5′,6′:4,5]thieno[3,2-f]quinolin-8-one]",16
8,"C=Cc1cc(-c2ccc3c(ccc4sc5c(c43)NC[C@@H](C)NC5=O)n2)nc(CO)n1 [Example I-76, (R)-3-(2-(hydroxymethyl)-6-vinylpyrimidin-4-yl)-10-methyl-9,10,11,12-tetrahydro-8H-[1,4]diazepino[5′,6′:4,5]thieno[3,2-f]quinolin-8-one]",1
9,"C[C@@H]1CNc2c(sc3ccc4nc(-n5c(Br)nc(Cl)c5Cl)ccc4c23)C(=O)N1 [Example I-250, (R)-3-(2-bromo-4,5-dichloro-1H-imidazol-1-yl)-10-methyl-9,10,11,12-tetrahydro-8H-[1,4]diazepino[5′,6′:4,5]thieno[3,2-f]quinolin-8-one]",580
10,"(10R)-3-(2-(2,6-dimethylmorpholino)-6-vinylpyridin-4-yl)-10-methyl-9,10,11,12-tetrahydro-8H-[1,4]diazepino[5′,6′:4,5]thieno[3,2-f]quinolin- [Example I-201]",73
11,"C=Cc1nscc1-c1ccc2c(ccc3sc4c(c32)NC[C@@H](C)NC4=O)n1 [Example I-228, (R)-10-methyl-3-(3-vinylisothiazol-4-yl)-9,10,11,12-tetrahydro-8H-[1,4]diazepino[5′,6′:4,5]thieno[3,2-f]quinolin-8-one]",128
12,"C=Cc1ncc(COC2(C)CCC2)c(-c2ccc3c(ccc4sc5c(c43)NC[C@@H](C)NC5=O)n2)n1 [Example I-26, (R)-10-methyl-3-(5-((1-methylcyclobutoxy)methyl)-2-vinylpyrimidin-4-yl)-9,10,11,12-tetrahydro-8H-[1,4]diazepino[5′,6′:4,5]thieno[3,2-f]quinolin-8-one]",684
13,"C=Cc1noc(C)c1-c1ccc2c(ccc3sc4c(c32)NC[C@@H](C)NC4=O)n1 [Example I-227, (R)-10-methyl-3-(5-methyl-3-vinylisoxazol-4-yl)-9,10,11,12-tetrahydro-8H-[1,4]diazepino[5′,6′:4,5]thieno[3,2-f]quinolin-8-one]",418
14,"C[C@@H]1CNc2c(sc3ccc4nc(-c5nc(Cl)ncc5COC5COC5)ccc4c23)C(=O)N1 [Example I-20, (R)-3-(2-chloro-5-((oxetan-3-yloxy)methyl)pyrimidin-4-yl)-10-methyl-9,10,11,12-tetrahydro-8H-[1,4]diazepino[5′,6′:4,5]thieno[3,2-f]quinolin-8-one]",224
15,"C=C(F)c1cccc(-c2ccc3c(ccc4sc5c(c43)NC[C@@H](C)NC5=O)n2)n1 [Example I-90, (R)-3-(6-(1-fluorovinyl)pyridin-2-yl)-10-methyl-9,10,11,12-tetrahydro-8H-[1,4]diazepino[5′,6′:4,5]thieno[3,2-f]quinolin-8-one]",460
16,"[2H]C([2H])([2H])C(O)c1cnc(C=C)cc1-c1ccc2c(ccc3sc4c(c32)NC[C@@H](C)NC4=O)n1 (stereo partly drawn) [Example I-259, (10R)-3-(5-(1-hydroxyethyl-2,2,2-d3)-2-vinylpyridin-4-yl)-10-methyl-9,10,11,12-tetrahydro-8H-[1,4]diazepino[5′,6′:4,5]thieno[3,2-f]quinolin-8-one]",15
17,"C=Cc1nc(-c2ccc3c(ccc4sc5c(c43)NC[C@@H](C)NC5=O)n2)nn1C [Example I-208, (R)-10-methyl-3-(1-methyl-5-vinyl-1H-1,2,4-triazol-3-yl)-9,10,11,12-tetrahydro-8H-[1,4]diazepino[5′,6′:4,5]thieno[3,2-f]quinolin-8-one]",285

# The next lines start with the values.
row,IC50 [nM],Compound
1,6,"C=Cc1cc(-c2ccc3c(ccc4sc5c(c43)NC[C@@H](C)NC5=O)n2)cc(N2CC3(COC3)C2)n1 [Example I-238, (R)-3-(2-(2-oxa-6-azaspiro[3.3]heptan-6-yl)-6-vinylpyridin-4-yl)-10-methyl-9,10,11,12-tetrahydro-8H-[1,4]diazepino[5′,6′:4,5]thieno[3,2-f]quinolin-8-one]"
2,23,"C=Cc1cc(-c2ccc3c(ccc4sc5c(c43)NC[C@@H](C)NC5=O)n2)cc(N2CCOCC2)n1 [Example I-156, (R)-10-methyl-3-(2-morpholino-6-vinylpyridin-4-yl)-9,10,11,12-tetrahydro-8H-[1,4]diazepino[5′,6′:4,5]thieno[3,2-f]quinolin-8-one]"
3,26,"C#Cc1cc(-c2ccc3c(ccc4sc5c(c43)NC[C@@H](C)NC5=O)n2)cc(CN2C[C@@H](C)O[C@@H](C)C2)n1 [Example I-186, (R)-3-(2-(((2S,6R)-2,6-dimethylmorpholino)methyl)-6-ethynylpyridin-4-yl)-10-methyl-9,10,11,12-tetrahydro-8H-[1,4]diazepino[5′,6′:4,5]thieno[3,2-f]quinolin-8-one]"
4,7,"C=Cc1cc(-c2ccc3c(ccc4sc5c(c43)NC[C@@H](C)NC5=O)n2)cc(CN2C[C@@H](C)O[C@@H](C)C2)n1 [Example I-185, (R)-3-(2-(((2S,6R)-2,6-dimethylmorpholino)methyl)-6-vinylpyridin-4-yl)-10-methyl-9,10,11,12-tetrahydro-8H-[1,4]diazepino[5′,6′:4,5]thieno[3,2-f]quinolin-8-one]"
5,2,"C=Cc1cc(-c2ccc3c(ccc4sc5c(c43)NC[C@@H](C)NC5=O)n2)cc(CN2CCN(C)CC2)n1 [Example I-125, (R)-10-methyl-3-(2-((4-methylpiperazin-1-yl)methyl)-6-vinylpyridin-4-yl)-9,10,11,12-tetrahydro-8H-[1,4]diazepino[5′,6′:4,5]thieno[3,2-f]quinolin-8-one]"
6,184,"C#Cc1cc(-c2ccc3c(ccc4sc5c(c43)NC[C@@H](C)NC5=O)n2)cc(N2CCC2)n1 [Example I-180, (R)-3-(2-(azetidin-1-yl)-6-ethynylpyridin-4-yl)-10-methyl-9,10,11,12-tetrahydro-8H-[1,4]diazepino[5′,6′:4,5]thieno[3,2-f]quinolin-8-one]"
7,152,"C#Cc1cc(-c2ccc3c(ccc4sc5c(c43)NC[C@@H](C)NC5=O)n2)cc(C)n1 [Example I-112, (R)-3-(2-ethynyl-6-methylpyridin-4-yl)-10-methyl-9,10,11,12-tetrahydro-8H-[1,4]diazepino[5′,6′:4,5]thieno[3,2-f]quinolin-8-one]"
8,45,"C#Cc1cc(-c2ccc3c(ccc4sc5c(c43)NC[C@@H](C)NC5=O)n2)c(OCCN2CCCC2)nn1 [Example I-120, (R)-3-(6-ethynyl-3-(2-(pyrrolidin-1-yl)ethoxy)pyridazin-4-yl)-10-methyl-9,10,11,12-tetrahydro-8H-[1,4]diazepino[5′,6′:4,5]thieno[3,2-f]quinolin-8-one]"
9,8,"C=Cc1cc(-c2ccc3c(ccc4sc5c(c43)NC[C@@H](C)NC5=O)n2)cc(C2CCN(C)CC2)n1 [Example I-106, (R)-10-methyl-3-(2-(1-methylpiperidin-4-yl)-6-vinylpyridin-4-yl)-9,10,11,12-tetrahydro-8H-[1,4]diazepino[5′,6′:4,5]thieno[3,2-f]quinolin-8-one]"
10,58,"C=Cc1cc(-c2ccc3c(ccc4sc5c(c43)NC[C@@H](C)NC5=O)n2)cc(Cl)n1 [Example I-72, (R)-3-(2-chloro-6-vinylpyridin-4-yl)-10-methyl-9,10,11,12-tetrahydro-8H-[1,4]diazepino[5′,6′:4,5]thieno[3,2-f]quinolin-8-one]"
11,22,"C#Cc1cc(-c2ccc3c(ccc4sc5c(c43)NC[C@@H](C)NC5=O)n2)cc(C2CCN(C)CC2)n1 [Example I-107, (R)-3-(2-ethynyl-6-(1-methylpiperidin-4-yl)pyridin-4-yl)-10-methyl-9,10,11,12-tetrahydro-8H-[1,4]diazepino[5′,6′:4,5]thieno[3,2-f]quinolin-8-one]"
